Data from patent publication US10675286B2, “Heterocyclic compounds and uses thereof” (Infinity Pharmaceuticals, Inc., priority 2014, dated 2020).
Read-outs that look alike come from different tables or passages of the source. One block for each compound: values may come before it.

Experiments:
[1] = target: PI3K γ (Homo sapiens (Human), UniProt P48736); assay: PI3-Kinase Promega ADP-Glo Max assay, γ isoform; format: biochemical
[2] = target: PI3K-δ (Homo sapiens (Human), UniProt O00329); assay: RAJI p110 δ assay (phospho-AKT in anti-human IgM stimulated RAJI cells); format: cell-based
[3] = target: PI3K-γ (Mus musculus (Mouse), UniProt Q9JHG7); assay: Raw264.7 p110 γ assay (C5a-mediated phospho-AKT in RAW264.7 macrophages); format: cell-based
[4] = tested on: human T cells; assay: Concanavalin A-induced model for activation of human T cells (IFN-γ); format: cell-based
[5] = tested on: IL-8 induced neutrophil migration; assay: IL-8 driven murine air pouch model; format: in vivo; conditions: mouse; Compound BB 0.1, 0.3, 1, 3 mg/kg; Compound AA 10, 25, about 50 mg/kg; vs vehicle
Text: IL-8 chemoattracts and activates neutrophils.

[6] = tested on: CXCL12-induced T cell migration; assay: CXCL12-induced T-cell migration in CLL PBMCs (transwell); format: cell-based; conditions: Homo sapiens
Protocol: Specifically, the material used were media (RPMI+0.5% Fetal Bovine Serum+Pen/Strep), total CLL PBMCs (AllCells), CoStar 24-transwell plates ([…]) #3421, BD Cytofix Fixation Buffer (#554655), BD FBS Stain Buffer (BD Biosciences, 554656), Deep 96-well plate (Axygen, P-2ML-SQ-C), rhCXCL12 (R&D, 350-NS-050), CD-19 APC Cy7 (BD #348794 1:20), CD3-PerCPCy5.5 (BD #560835, 1:20), CD5-PE (Biolegend #300608, 1:5), CD4-FITC (BD #561842, 1:20), and CD8-APC (BD #561953, 1:20).
Total CLL human PBMCs were preincubated with Compound AA or BB in media for 45 minutes at 37° C. […] After the 45 minutes of compound preincubation, 500-750K CLL PBMCs were placed in the upper chamber of the transwell insert in a total volume of 100 uL. The cells were allowed to migrate for 2-4 hours at 37° C. The inserts were removed, and 550 uL media from lower chamber were transferred into a deep 96-well plate. The cells were spun at 1280 rpm for 5 minutes and flick media. The cells were resuspended in 400 uL BD Cytofixation buffer and incubated at RT for 10 minutes. 1 mL BD FBS stain buffer was added. The cells were spun at 1280 rpm and fixation buffer was disposed. The cells were resuspended in 100 uL of CD3,4,8,5,19 antibody cocktail made up in BD FBS stain buffer, which was then incubated at room temperature in the dark for 30-60 minutes. 1 mL BD FBS stain buffer was added to each well, which was then spun and flicked. The cells were resuspended in 150 uL FBS stain buffer and transferred to FACS tubes already containing 150 uL FBS stain buffer. Each sample was read on the FACS for 25 seconds. Gate on CD3, 4, 8 and CD19/5 subpopulations individually and calculate average migration index from triplicate samples. See e.g., Borge et al., haematologica 2010, 95(5): 768-775; de Rooij et al., Blood 2012, 119: 2590-2594.

[7] = tested on: LPS-induced neutrophil influx into BALF; assay: LPS-induced neutrophilia in rats, oral administration; format: in vivo; conditions: rat, p.o., 4 hours post-LPS challenge; dose dependent
Protocol: (§1) This study also includes assessment of the exposure to the compounds in plasma and lung tissues.
(§2) Ref C is budesonide p.o. The compound was administered p.o. and about 1 hour later, LPS was administered intra-tracheally and plasma was collected. After about 5 hours, plasma and bronchoalveolar lavage samples were collected.

[8] = Oral PK in the rat LPS studies (free plasma concentration); format: in vivo; conditions: for Free Plasma Conc (nM): p.o. 0.2 mg/kg
Protocol: as §1, §2

[9] = tested on: CXCL12 induced p-AKT in bone marrow derived macrophages; assay: CXCL12-induced p-AKT induction assay in differentiated, polarized macrophages; format: cell-based, mouse
Text: Long bones from young C57B6 mice were harvested and bone marrow was extruded by gentle lavage of the bone marrow cavities with a 28 gauge needle. Red blood cells were removed using red blood cell lysis buffer (Sigma). Bone marrow cells were differentiated to macrophages using MCSF for 6 days (RPMI and 20% FCS) with one media change (with removal of all non-adherent cells) at day 3. Macrophages were polarized into M0 (MCSF), M1 (MCSF, IFNγ, and LPS for 1 day), or M2 (MCSF, IL4 for 2 days).
Polarized macrophages were lifted with Acutase, and plated at 0.5M cells per well (0.5 ml) in a deep well (2 ml) non adherant plate in polarization media for 1 hour. […] CXCL12 was added, and the cells were mixed on a plate shaker for 2 minutes. 1 ml of 37 degree FACS Lyse/fix buffer (BD bioscience) was added and the plate was mixed for 1 minute. The plates were spun and decanted and frozen at −80° C. Phospho AKT staining with anti Phospho AKT 473 PERCP labeled (Cell Signaling Technologies) was performed and measured by flow cytometry. Total cell MFI was used to calculate the effect of tested compound on CXCL12 induction of phospho AKT.

[10] = tested on: T cell activation (IFN-γ in response to ConA); assay: T cell activation in human whole blood (Con-A, IFN-γ readout); format: cell-based; conditions: 24 hours, read-out: IC50, T cell activation as measured by inhibition of IFN-γ
Protocol: The purpose of this study is to evaluate the effect of various antigens (Con-A) in T cell activation in Human Whole Blood vs. 1:1 Diluted Blood using test compounds at 24 hour time-point.
T-cell Activation Media includes RPMI-1000 ml, MEM NEAA-10 ml, Sodium Pyruvate (100 mM)-10 ml, Pen Strep-10 ml, 2-Mercaptoethanol-1 ml, and FBS-100 ml. 100 ul of whole blood were plated in 96 well plate. Used only the 60 inside wells and filled the outside with media or PBS. Diluted human whole blood with 5% Serum RPMI 1640 1:1 and plate 100 ul in 96 well plate. Used only the 60 inside wells and filled the outside with media or PBS.
The compound was diluted using DMSO (Sigma hybridmax). For 1000 nM highest concentration starting from a 10 mM stock, added 300 ul of DMSO into deep well plates. To the highest concentration add 10 ul of 10 mM compound stock.
A media plate was prepared from DMSO plate by taking 100 ul and go into 900 ul media in new deep well plate, taping plate, and putting on mixer for 5 minutes.
The rested cell plates were removed from incubator. Added 12 uL of diluted compound from media plate (final DMSO is 1%), and incubated for 45 minutes.
Con-A was prepared as follows: 200 ul stock into 1 ml Media, 100 ul of that into 1 ml Media, 100 ul of that into 1 ml Media. […] This was analyzed after 24 Hours.
10× stock in media, added 12 ul per well. […] Analyzed with multiplex elisa from MSD. […]

[11] = tested on: LLC tumor brei; assay: LLC tumor brei model, Compound BB with or without cyclophosphamide; format: in vivo, mouse; conditions: Compound BB 15 mg/kg QD PO, cyclophosphamide 50 mg/kg EOD IP
[12] = Pharmacokinetics of Compound 88 in female C57 mice, PO; format: in vivo, mouse; conditions: for tlast / AUC: female C57 mice; for AUC: mouse, plasma, read-out: AUC0_INF
Protocol: Animals were weighed daily prior to dosing. […] On subsequent dosing days, the animals' condition was noted prior to dosing; the animals were observed within 4 hours of dosing, and at the end of the day.
Samples were collected at pre-dose 0.25, 0.5, 1, 2, 4, 6 and 24 h following the first dose on day 1 and pre-dose (trough), 0.25, 0.5, 1, 2, 4, 6 and 24 h following the final dose on day 3. Animals received a single oral dose daily for 3 consecutive days. Blood was collected by retro-orbital bleeding for all time points on day 1. All other blood sampling was collected by a cardiac puncture. Blood was collected into K2EDTA tubes and placed on wet ice. Within 15 min of collection, the sample was centrifuged at 10,000 rpm at 4° C. for 10 min in a bench top centrifuge and the plasma transferred to a new microcentrifuge tube.
A similar study was carried out using Compound 88. […] Below is a table that details the results for Compound 88: […]

[13] = tested on: haematological malignancies; conditions: cited from earlier work

Chain of PI3K-γ (Q9JHG7 whole entry): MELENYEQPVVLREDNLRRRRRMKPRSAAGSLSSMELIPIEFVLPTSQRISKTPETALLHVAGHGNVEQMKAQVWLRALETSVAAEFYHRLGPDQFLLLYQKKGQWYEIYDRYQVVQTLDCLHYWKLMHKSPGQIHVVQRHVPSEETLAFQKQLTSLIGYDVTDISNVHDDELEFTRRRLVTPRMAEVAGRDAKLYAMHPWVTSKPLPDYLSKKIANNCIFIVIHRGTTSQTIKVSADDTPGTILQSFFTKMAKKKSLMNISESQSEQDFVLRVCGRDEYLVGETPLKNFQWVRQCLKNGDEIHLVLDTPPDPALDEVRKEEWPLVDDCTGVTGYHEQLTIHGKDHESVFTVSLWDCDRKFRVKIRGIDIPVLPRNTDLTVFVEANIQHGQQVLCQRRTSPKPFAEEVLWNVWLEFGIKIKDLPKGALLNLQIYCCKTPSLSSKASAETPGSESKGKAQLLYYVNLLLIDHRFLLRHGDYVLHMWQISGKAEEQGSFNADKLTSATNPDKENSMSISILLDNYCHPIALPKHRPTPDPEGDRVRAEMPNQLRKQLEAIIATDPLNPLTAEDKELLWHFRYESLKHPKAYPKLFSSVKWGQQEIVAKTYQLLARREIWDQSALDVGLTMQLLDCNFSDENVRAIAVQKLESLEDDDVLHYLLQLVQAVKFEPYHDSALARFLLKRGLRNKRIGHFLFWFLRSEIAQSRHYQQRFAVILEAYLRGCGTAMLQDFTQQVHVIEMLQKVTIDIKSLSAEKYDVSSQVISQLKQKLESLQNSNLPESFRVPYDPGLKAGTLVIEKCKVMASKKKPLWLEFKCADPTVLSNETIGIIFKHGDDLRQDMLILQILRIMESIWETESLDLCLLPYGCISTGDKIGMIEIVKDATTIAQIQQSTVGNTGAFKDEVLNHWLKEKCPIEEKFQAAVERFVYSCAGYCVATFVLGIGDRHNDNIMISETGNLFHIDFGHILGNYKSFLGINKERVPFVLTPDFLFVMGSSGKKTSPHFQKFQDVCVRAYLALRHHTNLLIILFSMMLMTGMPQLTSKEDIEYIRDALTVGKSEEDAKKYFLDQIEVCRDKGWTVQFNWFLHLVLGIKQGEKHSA
Chain of PI3K γ (P48736 whole entry, canonical isoform): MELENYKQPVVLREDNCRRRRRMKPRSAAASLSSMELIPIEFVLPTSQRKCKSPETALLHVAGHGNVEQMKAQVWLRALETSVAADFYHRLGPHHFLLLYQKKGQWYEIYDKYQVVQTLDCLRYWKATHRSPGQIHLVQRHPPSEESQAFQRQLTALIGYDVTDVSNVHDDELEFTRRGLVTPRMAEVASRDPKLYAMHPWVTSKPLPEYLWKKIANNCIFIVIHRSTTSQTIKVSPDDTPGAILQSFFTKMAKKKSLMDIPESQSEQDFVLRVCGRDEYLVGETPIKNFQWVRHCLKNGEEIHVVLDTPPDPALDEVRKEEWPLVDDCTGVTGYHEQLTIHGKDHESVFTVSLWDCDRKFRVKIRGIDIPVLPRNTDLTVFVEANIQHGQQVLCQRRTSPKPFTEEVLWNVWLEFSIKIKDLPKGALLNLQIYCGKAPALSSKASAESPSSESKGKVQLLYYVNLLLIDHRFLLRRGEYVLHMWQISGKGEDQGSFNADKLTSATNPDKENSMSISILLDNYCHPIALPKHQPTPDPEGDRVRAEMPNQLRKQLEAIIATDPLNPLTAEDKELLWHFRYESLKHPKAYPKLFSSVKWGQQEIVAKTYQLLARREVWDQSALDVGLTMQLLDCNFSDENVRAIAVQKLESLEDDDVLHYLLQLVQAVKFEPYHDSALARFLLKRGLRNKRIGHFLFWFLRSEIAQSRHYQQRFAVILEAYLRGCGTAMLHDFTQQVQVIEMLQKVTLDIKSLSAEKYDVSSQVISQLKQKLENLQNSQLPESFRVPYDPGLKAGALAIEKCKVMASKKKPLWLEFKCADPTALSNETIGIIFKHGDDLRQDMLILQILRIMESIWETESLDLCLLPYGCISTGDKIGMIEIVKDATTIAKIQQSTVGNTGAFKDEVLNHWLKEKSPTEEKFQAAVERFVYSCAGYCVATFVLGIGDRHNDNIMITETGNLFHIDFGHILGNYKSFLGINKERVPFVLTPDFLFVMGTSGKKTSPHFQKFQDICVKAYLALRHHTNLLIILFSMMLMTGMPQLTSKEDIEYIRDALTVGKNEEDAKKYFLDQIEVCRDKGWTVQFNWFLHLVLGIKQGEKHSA
Chain of PI3K-δ (O00329 whole entry): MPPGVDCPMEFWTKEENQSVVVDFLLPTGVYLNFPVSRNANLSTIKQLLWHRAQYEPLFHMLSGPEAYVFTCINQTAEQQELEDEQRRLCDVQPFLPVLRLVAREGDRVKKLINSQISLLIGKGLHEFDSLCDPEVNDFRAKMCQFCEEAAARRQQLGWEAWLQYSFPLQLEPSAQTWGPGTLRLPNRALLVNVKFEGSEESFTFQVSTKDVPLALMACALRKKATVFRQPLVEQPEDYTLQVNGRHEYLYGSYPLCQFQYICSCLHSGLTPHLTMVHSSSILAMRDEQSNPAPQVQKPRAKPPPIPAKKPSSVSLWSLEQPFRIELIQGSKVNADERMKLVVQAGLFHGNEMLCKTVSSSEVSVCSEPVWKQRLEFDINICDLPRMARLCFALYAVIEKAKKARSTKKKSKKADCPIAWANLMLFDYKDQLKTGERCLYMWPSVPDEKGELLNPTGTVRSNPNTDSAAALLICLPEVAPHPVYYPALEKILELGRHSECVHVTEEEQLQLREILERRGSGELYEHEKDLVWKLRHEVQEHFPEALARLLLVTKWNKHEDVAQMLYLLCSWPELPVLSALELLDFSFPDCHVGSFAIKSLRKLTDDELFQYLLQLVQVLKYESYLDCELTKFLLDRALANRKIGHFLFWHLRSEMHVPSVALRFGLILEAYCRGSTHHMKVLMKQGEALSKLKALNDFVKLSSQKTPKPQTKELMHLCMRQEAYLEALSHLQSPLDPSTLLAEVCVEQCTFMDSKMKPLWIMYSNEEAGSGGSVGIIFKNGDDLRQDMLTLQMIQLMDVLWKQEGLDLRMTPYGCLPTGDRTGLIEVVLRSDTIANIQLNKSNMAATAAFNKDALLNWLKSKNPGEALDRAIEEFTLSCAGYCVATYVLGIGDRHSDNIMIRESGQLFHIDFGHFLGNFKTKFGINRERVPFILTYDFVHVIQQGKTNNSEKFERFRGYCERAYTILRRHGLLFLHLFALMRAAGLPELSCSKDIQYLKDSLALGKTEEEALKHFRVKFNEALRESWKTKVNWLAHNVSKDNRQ
Chain of PI3K-δ (P27986 whole entry partner): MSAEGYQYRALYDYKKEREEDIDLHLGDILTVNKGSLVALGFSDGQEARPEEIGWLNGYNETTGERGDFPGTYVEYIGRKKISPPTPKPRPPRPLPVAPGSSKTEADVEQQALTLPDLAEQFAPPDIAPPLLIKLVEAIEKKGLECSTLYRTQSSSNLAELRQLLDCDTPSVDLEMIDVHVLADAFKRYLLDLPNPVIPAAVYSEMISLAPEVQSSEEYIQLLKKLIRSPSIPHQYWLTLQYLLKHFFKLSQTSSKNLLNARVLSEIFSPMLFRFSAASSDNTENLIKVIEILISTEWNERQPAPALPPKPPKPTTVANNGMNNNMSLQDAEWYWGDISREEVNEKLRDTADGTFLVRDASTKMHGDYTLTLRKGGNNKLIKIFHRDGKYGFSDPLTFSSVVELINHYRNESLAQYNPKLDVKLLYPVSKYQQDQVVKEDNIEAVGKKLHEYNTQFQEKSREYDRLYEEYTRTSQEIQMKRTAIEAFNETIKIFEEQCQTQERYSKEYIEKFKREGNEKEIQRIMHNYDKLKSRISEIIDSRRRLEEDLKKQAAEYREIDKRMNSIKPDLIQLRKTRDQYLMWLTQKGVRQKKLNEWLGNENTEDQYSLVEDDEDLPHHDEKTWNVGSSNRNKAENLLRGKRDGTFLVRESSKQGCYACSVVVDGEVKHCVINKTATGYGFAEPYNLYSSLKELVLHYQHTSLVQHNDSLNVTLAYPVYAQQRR

PI3K δ/PI3K γ IC50 (selectivity) [1]: Y (Y = 50 to <850)
IC50 [2]: 100 to 500 nM
RAJI δ/Raw264.7 γ IC50 (selectivity) [3]: X (X = 10 to <50)
IC50 ([3]; phospho-AKT): 1 to 50 nM
SMILES: C[C@H](NC(=O)c1c(N)nn2cccnc12)c1cc2cccc(C#Cc3ccn[nH]3)c2c(=O)n1-c1ccccc1 [Compound 43]

SMILES: CC(C)n1c([C@H](C)Nc2ncnc(N)c2C#N)cc2cccc(-c3ccc(=O)n(C)c3)c2c1=O [Compound AA, reference compound]
inhibition of IFN-γ [4]: highly selective inhibitor
IL-8 induced neutrophil migration into air pouch [5]: does not inhibit IL-8 induced neutrophil migration
EC50 ([6]; T-cell subset CD3+, read-out: EC50 (nM), CXCL12 induced T-cell migration): 630 ± 71 nM
EC50 ([6]; T-cell subset CD4+, read-out: EC50 (nM), CXCL12 induced T-cell migration): 726 ± 230 nM
EC50 ([6]; T-cell subset CD8+, read-out: EC50 (nM), CXCL12 induced T-cell migration): 423 ± 290 nM
EC50 ([6]; read-out: EC50, inhibition of CXCL12-induced CD3+ T cell migration (FIG. 8)): 694 nM
Neutrophil in bronchoalveolar lavage fluid (BALF) [7]: reduced neutrophil in bronchoalveolar lavage fluid (BALF)
Free plasma levels relative to IC90 of the target isoform ([8]; highest dose levels, gamma for Compound BB, delta for Compound AA): equal or greater than the IC90
Free Plasma Conc (nM) ([8]; 1.5 h (time of LPS challenge)): BLQ
Free Plasma Conc (nM) ([8]; […] (about 4 hours post LPS challenge)): BLQ
IC50, CXCL12 induced p-AKT ([9]; differentiated and M1 polarized macrophage): did not significantly inhibit
IC50, CXCL12 induced p-AKT ([9]; differentiated and M2 polarized macrophage): did not significantly inhibit
IC50 [10]: 3 nM

SMILES: O=P1(N(CCCl)CCCl)NCCCO1 (centres unmarked) [cyclophosphamide, reference compound]
Tumor growth (FIG. 48) [11]: reduced tumor growth by about the same amount

tlast ([12]; 2 mg/kg PO NMP): 8 h
tlast ([12]; 7.5 mg/kg PO NMP): 24 h
tlast ([12]; 15 mg/kg PO NMP): 24 h
Stability in serum ([12]; female C57 mice, 2, 7.5 or 15 mg/kg PO): good stability in serum
AUC ([12]; 7.5 mg/kg PO NMP): 20700 ng·h/mL
AUC ([12]; 15 mg/kg PO NMP): 81200 ng·h/mL
SMILES: Cc1c(C#Cc2cccc3nc([C@H](C)NC(=O)c4c(N)nn5cccnc45)n(-c4ccccc4)c(=O)c23)cnn1C [Compound 88, (S)-2-amino-N-(1-(5-((1,5-dimethyl-1H-pyrazol-4-yl)ethynyl)-4-oxo-3-phenyl-3,4-dihydroquinazolin-2-yl)ethyl)pyrazolo[1,5-a]pyrimidine-3-carboxamide]

SMILES: CC[C@H](Nc1ncnc2[nH]cnc12)c1nc2cccc(F)c2c(=O)n1-c1ccccc1 [CAL-101]
clinical activity in CLL ([13]; phase 1 trial, patients with poor prognostic characteristics): showed activity
clinical activity in mantle cell lymphoma and refractory non Hodgkin's lymphoma ([13]; single agent): active
